Experimental findings from patent publication US20230416330A1, “Optimized GIP Peptide Analogues” (Antag Therapeutics ApS, priority 2019, published 2023) are described below.

Starred links: 1 amine or outer side, 2 acyl side, 3 side chain; linkers in the order of their positions; H or OH if unused. Non-standard residues stand in square brackets, D forms with d. Residues, ends and D or L forms follow the SMILES beside them. Groups on a side chain read outwards from the residue. *: point of attachment. C18 diacid = O=C(O)CCCCCCCCCCCCCCCCC(=O)*; C16 diacid = O=C(O)CCCCCCCCCCCCCCC(=O)*; γGlu = O=C(O)[C@H](CCC(=O)[*:2])N[*:1]; Glutaryl = O=C(CCCC(=O)[*:2])[*:1]; AEEA = NCCOCCOCC(=O)O; Aib = CC(C)(N)C(=O)O

Data set [1] in a line: Solubility by visual inspection of peptide solutions. In kind it is physicochemical. The procedure: (§1) Peptides were either dissolved in sodium phosphate buffer (50 mM, pH 7.4, filtered) or dissolved in ultrapure (MilliQ) water (adjusted to pH 7.4 with NaOH, filtered) (see Table 3). All peptide samples were prepared to a concentration of 1, 5, 7.5 or 15 mg/ml. All samples, with the exception of reference peptides GIP(3-30), AT158, and AT482 dissolved readily and produced clear and colorless solutions with gentle mixing. Peptide samples were subsequently filtered through 0.22 μm nylon filters (Q-Max® RR syringe filter, 13 mm, Frisenette, DK) to produce particle-free solutions. All samples were added to a 96-well plate reader for the ThT assay at t=0.
Clear visual appearance may be taken as an indicator of the immediate solubility of the peptide. […] Thus, A13Aib and/or N24E substitutions appear to increase solubility.

Data set [2] in a line: Physical stability: fibril formation in Thioflavin T (ThT) assay with agitation. The following applies: for Avr lag time / Avr lag time (h): 25° C., agitation; for Fibril formation (FIG. 1): in phosphate buffer, about 94 h, orbital rotation. In kind it is physicochemical. On the procedure: Continuous measurement of the fluorescence emission at 486 nm can be used as a measure of fibrillation behavior of peptides and proteins. The time until onset of fibrillation or fibrillation lag time is estimated here by defining the lag time (Tlag) as the point in time where the signal relative to the pre-transition baseline has reached 10% of the post-transition baseline.
50 mM sodium phosphate buffer for dissolving some samples was prepared in ultrapure water (Milli-Q® Reference A+ System, Merck) with a resistivity of 18.2 MΩ·cm. The buffer was adjusted to pH 7.4 and filtered.
The ultrapure water (MilliQ) for dissolving some samples was adjusted to pH 7.4 with NaOH and filtered prior to sample preparation.
as §1
For each sample, […] ThT (1 mM) was added to 1.2 mL peptide solution. From this sample mixture, an amount of 200 uL/well was pipetted into four or five wells (n=4 or 5). Blank samples (buffer+ThT) were also included. One 3 mm silica bead was added to each well containing samples and the plate was subjected to orbital rotation at 300 rpm to agitate and stress the samples. The temperature was kept at 25° C. throughout the measurement.

Turning to `CC[C@H](C)[C@H](NC(=O)[C@H](CO)NC(=O)[C@H](Cc1ccc(O)cc1)NC(=O)[C@H](CC(=O)O)NC(=O)[C@H](CO)NC(=O)[C@@H](NC(=O)[C@H](Cc1ccccc1)NC(=O)[C@@H](NC(=O)CNC(=O)[C@@H](N)CCC(=O)O)[C@@H](C)O)[C@@H](C)CC)C(=O)N[C@@H](C)C(=O)N[C@@H](CCSC)C(=O)N[C@@H](CC(=O)O)C(=O)N[C@@H](CCCCN)C(=O)N[C@H](C(=O)N[C@@H](CCCCNC(=O)CCCCCCCCCCCCCCC(=O)O)C(=O)N[C@@H](CCC(N)=O)C(=O)N[C@@H](CCC(N)=O)C(=O)N[C@@H](CC(=O)O)C(=O)N[C@@H](Cc1ccccc1)C(=O)N[C@H](C(=O)N[C@@H](CC(N)=O)C(=O)N[C@@H](Cc1c[nH]c2ccccc12)C(=O)N[C@@H](CC(C)C)C(=O)N[C@@H](CC(C)C)C(=O)N[C@@H](C)C(=O)N[C@@H](CCC(N)=O)C(=O)N[C@@H](CCCCN)C(=O)N1CCC[C@H]1C(=O)N[C@@H](CO)C(=O)N[C@@H](CO)C(=O)NCC(=O)N[C@@H](C)C(=O)N1CCC[C@H]1C(=O)N1CCC[C@H]1C(=O)N1CCC[C@H]1C(=O)N[C@@H](CO)C(=O)O)C(C)C)[C@@H](C)CC` [AT364, GIP(3-30) [H18K] C16diacid+Cex(31-39), reference compound] (H-EGTFISDYSIAMDKIK(C16 diacid)QQDFVNWLLAQKPSSGAPPPS-OH; N-terminus assumed), the Visual appearance entry was “Clear” in data set [1] (1 mg/ml, CI, Phosphate (7.4)); “Clear” in data set [1] (1 mg/ml, Na, MilliQ); “Clear” in data set [1] (1 mg/ml, TFA, Phosphate (7.4)); “Clear” in data set [1] (5 mg/ml, Na, MilliQ); “Clear” in data set [1] (5 mg/ml, TFA, MilliQ (8)); “Clear” in data set [1] (5 mg/ml, TFA, Phosphate). The Visual appearance result in data set [1] (7.5 mg/ml, Na, MilliQ (8)) is on record as “Clear”; in data set [1] (15 mg/ml, Na, MilliQ (8)), “Clear”. Further, the “Avr lag time” value is <18 h in data set [2] (1 mg/ml, TFA, Phosphate (7.4)); 20 to 50 h in data set [2] (5 mg/ml, Na, MilliQ); <18 h in data set [2] (5 mg/ml, TFA, MilliQ (8)); <18 h in data set [2] (5 mg/ml, TFA, Phosphate). Besides, the “Fibril formation (FIG. 1)” value in data set [2] is “forms fibrils”.

For `CC[C@H](C)[C@H](NC(=O)[C@H](CCCCN)NC(=O)[C@H](CC(=O)O)NC(=O)[C@H](CC(C)C)NC(=O)C(C)(C)NC(=O)[C@@H](NC(=O)[C@H](CO)NC(=O)[C@H](Cc1ccc(O)cc1)NC(=O)[C@H](CCC(=O)O)NC(=O)[C@H](CO)NC(=O)[C@@H](NC(=O)[C@H](Cc1ccccc1)NC(=O)[C@@H](NC(=O)CNC(=O)[C@@H](N)CCC(=O)O)[C@@H](C)O)[C@@H](C)CC)[C@@H](C)CC)C(=O)N[C@@H](CCCCNC(=O)COCCOCCNC(=O)COCCOCCNC(=O)CC[C@H](NC(=O)CCCCCCCCCCCCCCCCC(=O)O)C(=O)O)C(=O)N[C@@H](CCC(N)=O)C(=O)N[C@@H](CCC(N)=O)C(=O)N[C@@H](CC(=O)O)C(=O)N[C@@H](Cc1ccccc1)C(=O)N[C@H](C(=O)N[C@@H](CCC(=O)O)C(=O)N[C@@H](Cc1c[nH]c2ccccc12)C(=O)N[C@@H](CC(C)C)C(=O)N[C@@H](CC(C)C)C(=O)N[C@@H](C)C(=O)N[C@@H](CCC(N)=O)C(=O)N[C@@H](CCCCN)C(=O)N1CCC[C@H]1C(=O)N[C@@H](CO)C(=O)N[C@@H](CO)C(=O)NCC(=O)N[C@@H](C)C(=O)N1CCC[C@H]1C(=O)N1CCC[C@H]1C(=O)N1CCC[C@H]1C(=O)N[C@@H](CO)C(=O)O)C(C)C` [AT712] (H-EGTFISEYSI[Aib]LDKIK([AEEA-AEEA-γGlu-C18 diacid])QQDFVEWLLAQKPSSGAPPPS-OH; N-terminus assumed), the Visual appearance result in data set [1] (1 mg/ml, TFA, Phosphate (7.4)) is “Clear”. Besides, in data set [2] (1 mg/ml, TFA, Phosphate (7.4)), the “Avr lag time (h)” value is “fnd (Fnd = fibrils not detected within experiment time (96 hours) with agitation.)”.

In the case of `CC[C@H](C)[C@H](NC(=O)[C@H](CCCCN)NC(=O)[C@H](CCC(=O)O)NC(=O)[C@H](CC(C)C)NC(=O)C(C)(C)NC(=O)[C@@H](NC(=O)[C@H](CO)NC(=O)[C@H](Cc1ccc(O)cc1)NC(=O)[C@H](CCC(=O)O)NC(=O)[C@H](CO)NC(=O)[C@@H](NC(=O)[C@H](Cc1ccccc1)NC(=O)[C@@H](NC(=O)CNC(=O)[C@@H](N)CCC(=O)O)[C@@H](C)O)[C@@H](C)CC)[C@@H](C)CC)C(=O)N[C@@H](CCCCNC(=O)[C@H](C)NC(=O)[C@H](CCC(=O)O)NC(=O)[C@H](CC(C)C)NC(=O)[C@H](C)NC(=O)CCCCCCCCCCCCCCC(=O)O)C(=O)N[C@@H](CCC(N)=O)C(=O)N[C@@H](CCC(N)=O)C(=O)N[C@@H](CCC(=O)O)C(=O)N[C@@H](Cc1ccccc1)C(=O)N[C@H](C(=O)N[C@@H](CCC(=O)O)C(=O)N[C@@H](Cc1c[nH]c2ccccc12)C(=O)N[C@@H](CC(C)C)C(=O)N[C@@H](CC(C)C)C(=O)N[C@@H](C)C(=O)N[C@@H](CCC(N)=O)C(=O)N[C@@H](CCCCN)C(=O)N1CCC[C@H]1C(=O)N[C@@H](CO)C(=O)N[C@@H](CO)C(=O)NCC(=O)N[C@@H](C)C(=O)N1CCC[C@H]1C(=O)N1CCC[C@H]1C(=O)N1CCC[C@H]1C(=O)N[C@@H](CO)C(=O)O)C(C)C` [AT725] (H-EGTFISEYSI[Aib]LEKIK([Ala-Glu-Leu-Ala-C16 diacid])QQEFVEWLLAQKPSSGAPPPS-OH; N-terminus assumed), the Visual appearance result in data set [1] (1 mg/ml, TFA, Phosphate (7.4)) is “Clear”. Besides, the “Avr lag time (h)” value in data set [2] (1 mg/ml, TFA, Phosphate (7.4)) was “fnd (Fnd = fibrils not detected within experiment time (96 hours) with agitation.)”.

Turning to `CC[C@H](C)[C@H](NC(=O)[C@H](CCCCN)NC(=O)[C@H](CC(=O)O)NC(=O)[C@H](CCSC)NC(=O)C(C)(C)NC(=O)[C@@H](NC(=O)[C@H](CO)NC(=O)[C@H](Cc1ccc(O)cc1)NC(=O)[C@H](CC(=O)O)NC(=O)[C@H](CO)NC(=O)[C@@H](NC(=O)[C@H](Cc1ccccc1)NC(=O)[C@@H](NC(=O)CNC(=O)CCCC(=O)O)[C@@H](C)O)[C@@H](C)CC)[C@@H](C)CC)C(=O)N[C@@H](CCCCNC(=O)CCCCCCCCCCCCCCC(=O)O)C(=O)N[C@@H](CCC(N)=O)C(=O)N[C@@H](CCC(N)=O)C(=O)N[C@@H](CC(=O)O)C(=O)N[C@@H](Cc1ccccc1)C(=O)N[C@H](C(=O)N[C@@H](CC(N)=O)C(=O)N[C@@H](Cc1c[nH]c2ccccc12)C(=O)N[C@@H](CC(C)C)C(=O)N[C@@H](CC(C)C)C(=O)N[C@@H](C)C(=O)N[C@@H](CCC(N)=O)C(=O)N[C@@H](CCCCN)C(=O)N1CCC[C@H]1C(=O)N[C@@H](CO)C(=O)N[C@@H](CO)C(=O)NCC(=O)N[C@@H](C)C(=O)N1CCC[C@H]1C(=O)N1CCC[C@H]1C(=O)N1CCC[C@H]1C(=O)N[C@@H](CO)C(=O)O)C(C)C` [AT763] (Glutaryl-GTFISDYSI[Aib]MDKIK(C16 diacid)QQDFVNWLLAQKPSSGAPPPS-OH), the Visual appearance result in data set [1] (1 mg/ml, TFA, Phosphate (7.4)) is on record as “Clear”; in data set [1] (5 mg/ml, TFA, MilliQ), “Clear”; in data set [1] (5 mg/ml, TFA, Phosphate), “Clear”. In addition, the “Avr lag time (h)” value in data set [2] (1 mg/ml, TFA, Phosphate (7.4)) is listed as “fnd (Fnd = fibrils not detected within experiment time (96 hours) with agitation.)”; in data set [2] (5 mg/ml, TFA, MilliQ) it was “fnd (Fnd = fibrils not detected within experiment time (96 hours) with agitation.)”; in data set [2] (5 mg/ml, TFA, Phosphate), “fnd (Fnd = fibrils not detected within experiment time (96 hours) with agitation.)”. Further, in data set [2], the “Fibril formation (FIG. 1)” value was “does not form fibrils”.

With `CC[C@H](C)[C@H](NC(=O)[C@H](CCCCN)NC(=O)[C@H](CC(=O)O)NC(=O)[C@H](CCSC)NC(=O)C(C)(C)NC(=O)[C@@H](NC(=O)[C@H](CO)NC(=O)[C@H](Cc1ccc(O)cc1)NC(=O)[C@H](CC(=O)O)NC(=O)[C@H](CO)NC(=O)[C@@H](NC(=O)[C@H](Cc1ccccc1)NC(=O)[C@@H](NC(=O)CNC(=O)[C@@H](N)CCC(=O)O)[C@@H](C)O)[C@@H](C)CC)[C@@H](C)CC)C(=O)N[C@@H](CCCCNC(=O)CCCCCCCCCCCCCCC(=O)O)C(=O)N[C@@H](CCC(N)=O)C(=O)N[C@@H](CCC(N)=O)C(=O)N[C@@H](CC(=O)O)C(=O)N[C@@H](Cc1ccccc1)C(=O)N[C@H](C(=O)N[C@@H](CC(N)=O)C(=O)N[C@@H](Cc1c[nH]c2ccccc12)C(=O)N[C@@H](CC(C)C)C(=O)N[C@@H](CC(C)C)C(=O)N[C@@H](C)C(=O)N[C@@H](CCC(N)=O)C(=O)N[C@@H](CCCCN)C(=O)N1CCC[C@H]1C(=O)N[C@@H](CO)C(=O)N[C@@H](CO)C(=O)NCC(=O)N[C@@H](C)C(=O)N1CCC[C@H]1C(=O)N1CCC[C@H]1C(=O)N1CCC[C@H]1C(=O)N[C@@H](CO)C(=O)O)C(C)C` [AT760] (H-EGTFISDYSI[Aib]MDKIK(C16 diacid)QQDFVNWLLAQKPSSGAPPPS-OH; N-terminus assumed), the Visual appearance result in data set [1] (1 mg/ml, TFA, Phosphate (7.4)) is on record as “Clear”; in data set [1] (5 mg/ml, TFA, MilliQ), “Clear”. Moreover, the “Avr lag time (h)” value was “fnd (Fnd = fibrils not detected within experiment time (96 hours) with agitation.)” in data set [2] (1 mg/ml, TFA, Phosphate (7.4)) and “fnd (Fnd = fibrils not detected within experiment time (96 hours) with agitation.)” in data set [2] (5 mg/ml, TFA, MilliQ).
